Reference: ChEMBL document CHEMBL1201862, “PubChem BioAssay data set” (2004)
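Five compound concentrations were applied to cells in 96-well plates for 48 hours; endpoints were derived by simple linear interpolation of the resulting dose-response curve. GI50 is the concentration that inhibits growth by half.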 Calls of active or inactive are those of the source. Rule as the data show it: active = GI50 up to about 1.1 µM and inactive = higher.

Assays:
Assay in all cases: NCI-60 cell line screen, 48 h
A549 = tested on: A549
HCT-116 = tested on: HCT-116
HCT-15 = tested on: HCT-15
HOP-62 = tested on: HOP-62
LOX IMVI = tested on: LOX IMVI
Malme-3M = tested on: Malme-3M
NCI-H226 = tested on: NCI-H226
NCI-H460 = tested on: NCI-H460
OVCAR-3 = tested on: OVCAR-3
RPMI-8226 = tested on: RPMI-8226
SF-268 = tested on: SF-268
SK-MEL-28 = tested on: SK-MEL-28
SK-MEL-2 = tested on: SK-MEL-2
SK-MEL-5 = tested on: SK-MEL-5
SNB-19 = tested on: SNB-19
SW-620 = tested on: SW-620
TK-10 = tested on: TK-10
U-251 = tested on: U-251

| SMILES | GI50 (A549) | GI50 (HCT-116) | GI50 (HCT-15) [µM] | GI50 (HOP-62) | GI50 (LOX IMVI) | GI50 (Malme-3M) | GI50 (NCI-H226) | GI50 (NCI-H460) | GI50 (OVCAR-3) | GI50 (RPMI-8226) | GI50 (SF-268) | GI50 (SK-MEL-28) | GI50 (SK-MEL-2) | GI50 (SK-MEL-5) | GI50 (SNB-19) | GI50 (SW-620) | GI50 (TK-10) | GI50 (U-251) |
| --- | --- | --- | --- | --- | --- | --- | --- | --- | --- | --- | --- | --- | --- | --- | --- | --- | --- | --- |
| O=[N+]([O-])c1ccc2c(c1)OCCOCCOc1ccc([N+](=O)[O-])cc1OCCOCCO2 | > 100 µM (inactive) | > 100 µM (inactive) | > 100 | > 100 µM (inactive) | > 100 µM (inactive) | > 100 µM (inactive) | > 100 µM (inactive) | > 100 µM (inactive) | > 100 µM (inactive) | > 100 µM (inactive) | > 100 µM (inactive) | > 100 µM (inactive) | > 100 µM (inactive) | > 100 µM (inactive) | > 100 µM (inactive) | > 100 µM (inactive) | > 100 µM (inactive) | > 100 µM (inactive) |
| COc1ccc2c3c(n(Cc4ccccc4)c(=O)c2c1)-c1cc(OC)c(OC)cc1C3C (stereo unspecified) | 18.6 µM (inactive) | 14.7 µM (inactive) | 28.1 | 14.8 µM (inactive) | 14.3 µM (inactive) | 15.6 µM (inactive) | 17.9 µM (inactive) | 4.71 µM (inactive) | 15 µM (inactive) | 14.5 µM (inactive) | 9.91 µM (inactive) | 43.5 µM (inactive) | 17 µM (inactive) | 12.2 µM (inactive) | 21.7 µM (inactive) | 35.7 µM (inactive) | > 54.3 µM (inactive) | 5.69 µM (inactive) |
| CN(c1ccccc1)c1cc2ccccc2nn1 | > 100 µM (inactive) | > 100 µM (inactive) | > 100 | > 100 µM (inactive) | 84.5 µM (inactive) | 87.1 µM (inactive) | > 100 µM (inactive) | > 100 µM (inactive) | 53.8 µM (inactive) | 70 µM (inactive) | > 100 µM (inactive) | > 100 µM (inactive) | > 100 µM (inactive) | 43.2 µM (inactive) | > 100 µM (inactive) | > 100 µM (inactive) | > 100 µM (inactive) | 81.8 µM (inactive) |
| Cc1cc2c(cc1C)[n+]([O-])c(C(=O)/C=C/c1ccc(Cl)cc1)c(C)[n+]2[O-] | 28.2 µM (inactive) |  | 33 | 24.4 µM (inactive) | 21.7 µM (inactive) | 38.5 µM (inactive) | > 100 µM (inactive) | 25.9 µM (inactive) | 33 µM (inactive) | 23.4 µM (inactive) | > 10 µM (inactive) | 23.2 µM (inactive) | 29.5 µM (inactive) | 23.7 µM (inactive) | 30.3 µM (inactive) | 31.1 µM (inactive) | 22.2 µM (inactive) | 26.8 µM (inactive) |
| O=c1[nH]nc2ccccc2c1Cl | 29.3 µM (inactive) | 16.3 µM (inactive) | 6.41 | 21 µM (inactive) | 17.6 µM (inactive) | 16.2 µM (inactive) | 24.6 µM (inactive) | 18.5 µM (inactive) | 2.65 µM (inactive) | 3.13 µM (inactive) | 17.8 µM (inactive) | > 10 µM (inactive) | 17.3 µM (inactive) | > 10 µM (inactive) | 16.1 µM (inactive) | 13.8 µM (inactive) | 18 µM (inactive) | 15.8 µM (inactive) |
| Cc1ccccc1NC(=O)CC(=O)n1nc(-c2ccccc2)c(/N=N/c2ccc([N+](=O)[O-])cc2)c1-c1ccccc1 | 16.1 µM (inactive) | 14.4 µM (inactive) |  | 16 µM (inactive) | 20.6 µM (inactive) | 23.8 µM (inactive) | 14.1 µM (inactive) | 31.5 µM (inactive) | 15.7 µM (inactive) | 19.2 µM (inactive) | 21.2 µM (inactive) | 27.3 µM (inactive) | 25.3 µM (inactive) | 13 µM (inactive) | 25.6 µM (inactive) | 30.5 µM (inactive) | 37.1 µM (inactive) | 14.1 µM (inactive) |
